Literature values as cited in patent publication US20030232078A1, “Formulation & dosage form for the controlled delivery of therapeutic agents” (priority 2001, published 2003).

Conditions: conventional formulations; well known

Row | SMILES | absorption in the lower GI tract
1 | N[C@@H](Cc1ccc(O)c(O)c1)C(=O)O [L-dopa] | not absorbed in significant amounts
2 | CS(=O)(=O)Nc1ccc(F)c([C@@H](O)CN)c1.Cl [ABT-232] | not absorbed in significant amounts
3 | C[C@@](Cc1ccc(O)c(O)c1)(NN)C(=O)O [carbidopa] | not absorbed in significant amounts
